# Reference: ChEMBL document CHEMBL1201862, “PubChem BioAssay data set” (2004)
#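 Step 1: Grow cells in 96-well plates. Step 2: Expose to compound for 48 hours at 5 concentrations. Step 3: Interpolate endpoints linearly; if unreached, use highest concentration. GI50 marks 50% less growth.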 Activity calls are given as the source filed them. Rule as the data show it: active = GI50 up to about 1.1 µM and inactive = higher.
# What was measured:
# Experiment in all cases: NCI-60 cell line screen, 48 h
# [1] = tested on: OVCAR-8
# [2] = tested on: A498
# [3] = tested on: OVCAR-3
# [4] = tested on: UO-31
# [5] = tested on: RPMI-8226
# [6] = tested on: HOP-62
# [7] = tested on: OVCAR-5
# [8] = tested on: HCT-15
# [9] = tested on: OVCAR-4
# [10] = tested on: HCT-116
# [11] = tested on: HCC 2998
# [12] = tested on: SNB-19
# [13] = tested on: Malme-3M
# [14] = tested on: HOP-92
# [15] = tested on: PC-3
# [16] = tested on: SF-539
# [17] = tested on: ACHN
# [18] = tested on: SNB-75
# [19] = tested on: Hs-578T
# [20] = tested on: MDA-MB-435
SMILES,GI50 [1],GI50 [2],GI50 [3],GI50 [4],GI50 [5],GI50 [6],GI50 [7],GI50 [8] [µM],GI50 [9],GI50 [10],GI50 [11],GI50 [12],GI50 [13],GI50 [14],GI50 [15],GI50 [16],GI50 [17],GI50 [18],GI50 [19],GI50 [20]
Cc1cc(S(=O)(=O)Nc2cc(N)n[nH]2)c(SCc2nc(N)nc(N(C)C)n2)cc1Cl,> 10 µM (inactive),> 10 µM (inactive),> 10 µM (inactive),> 10 µM (inactive),> 10 µM (inactive),> 10 µM (inactive),> 10 µM (inactive),> 10,> 10 µM (inactive),> 10 µM (inactive),> 10 µM (inactive),> 10 µM (inactive),> 10 µM (inactive),> 10 µM (inactive),> 10 µM (inactive),> 10 µM (inactive),> 10 µM (inactive),> 10 µM (inactive),> 10 µM (inactive),–
NCCCN(CCCN)CCCNCc1c2ccccc2c(CNCCCN(CCCN)CCCN)c2ccccc12,12.4 µM (inactive),28.2 µM (inactive),19 µM (inactive),29.6 µM (inactive),3.24 µM (inactive),14.4 µM (inactive),42 µM (inactive),14.4,17.2 µM (inactive),14.9 µM (inactive),4.51 µM (inactive),14.6 µM (inactive),8.07 µM (inactive),24.8 µM (inactive),–,14.7 µM (inactive),11.7 µM (inactive),16.5 µM (inactive),–,–
C1CSCC2(COC2)CSCCSCC2(COC2)CS1,> 100 µM (inactive),–,> 100 µM (inactive),> 100 µM (inactive),–,> 100 µM (inactive),> 100 µM (inactive),> 100,> 100 µM (inactive),> 100 µM (inactive),> 100 µM (inactive),> 100 µM (inactive),–,> 100 µM (inactive),> 100 µM (inactive),> 100 µM (inactive),–,35.6 µM (inactive),–,> 100 µM (inactive)
CSCCCNC(=O)c1csc(-c2csc(CCN)n2)n1,> 100 µM (inactive),–,> 100 µM (inactive),38.6 µM (inactive),44.7 µM (inactive),> 100 µM (inactive),49.4 µM (inactive),54.8,> 100 µM (inactive),84.5 µM (inactive),> 100 µM (inactive),> 100 µM (inactive),43.8 µM (inactive),> 100 µM (inactive),> 100 µM (inactive),> 100 µM (inactive),> 100 µM (inactive),–,56.8 µM (inactive),> 100 µM (inactive)
N#CC1=C(c2ccccc2)C(O)(c2ccccc2)NC1=O (configuration not stated),> 100 µM (inactive),24.6 µM (inactive),> 100 µM (inactive),82.8 µM (inactive),75 µM (inactive),> 100 µM (inactive),39.3 µM (inactive),> 100,> 100 µM (inactive),> 100 µM (inactive),> 100 µM (inactive),–,25.2 µM (inactive),19.5 µM (inactive),–,27.7 µM (inactive),37.5 µM (inactive),> 100 µM (inactive),–,–
CCOC(=O)C1CCCCc2sc(N)c(C#N)c21 (configuration not stated),> 100 µM (inactive),> 100 µM (inactive),–,> 100 µM (inactive),> 100 µM (inactive),> 100 µM (inactive),> 100 µM (inactive),> 100,–,> 100 µM (inactive),> 100 µM (inactive),> 100 µM (inactive),71.1 µM (inactive),> 100 µM (inactive),> 100 µM (inactive),–,> 100 µM (inactive),> 100 µM (inactive),> 100 µM (inactive),–
Cc1cc(C(=O)CBr)c(CN2C(=O)c3ccccc3C2=O)c(=O)n1C,18.1 µM (inactive),–,17.2 µM (inactive),18.4 µM (inactive),–,47.4 µM (inactive),24.9 µM (inactive),12.6,14.7 µM (inactive),66.1 µM (inactive),38.1 µM (inactive),33.3 µM (inactive),19.4 µM (inactive),–,17.2 µM (inactive),16.2 µM (inactive),8.47 µM (inactive),22.8 µM (inactive),15.2 µM (inactive),20.3 µM (inactive)
CCCCCCc1cc(C(=O)Nc2cccc(C(F)(F)F)c2)nc(N)n1,–,> 100 µM (inactive),> 100 µM (inactive),> 100 µM (inactive),> 100 µM (inactive),63.4 µM (inactive),> 100 µM (inactive),> 100,> 100 µM (inactive),> 100 µM (inactive),> 100 µM (inactive),> 100 µM (inactive),> 100 µM (inactive),> 100 µM (inactive),–,> 100 µM (inactive),> 100 µM (inactive),> 100 µM (inactive),–,–
N/N=C(\N)Nc1cccc2ccccc12,> 100 µM (inactive),33.3 µM (inactive),–,> 100 µM (inactive),> 100 µM (inactive),> 100 µM (inactive),> 100 µM (inactive),> 100,> 100 µM (inactive),> 100 µM (inactive),> 100 µM (inactive),> 100 µM (inactive),> 100 µM (inactive),27.9 µM (inactive),–,> 100 µM (inactive),> 100 µM (inactive),> 100 µM (inactive),> 100 µM (inactive),> 100 µM (inactive)
O=P(O)(O)OC1O[C@H](CO)[C@H](O)[C@H](O)[C@H]1O (some centres not stated),> 100 µM (inactive),> 100 µM (inactive),> 100 µM (inactive),> 100 µM (inactive),> 100 µM (inactive),> 100 µM (inactive),> 100 µM (inactive),> 100,> 100 µM (inactive),> 100 µM (inactive),> 100 µM (inactive),> 100 µM (inactive),> 100 µM (inactive),> 100 µM (inactive),–,–,> 100 µM (inactive),> 100 µM (inactive),> 100 µM (inactive),> 100 µM (inactive)
CC1(C)O[C@@H](CP(c2ccccc2)c2ccccc2)[C@H](CP(c2ccccc2)c2ccccc2)O1,4.06 µM (inactive),12.6 µM (inactive),0.384 µM (active),> 10 µM (inactive),3.72 µM (inactive),15.1 µM (inactive),8.81 µM (inactive),12.3,9.08 µM (inactive),1.84 µM (inactive),–,4.05 µM (inactive),5.83 µM (inactive),8 µM (inactive),–,7 µM (inactive),15.2 µM (inactive),6.55 µM (inactive),–,6.03 µM (inactive)
COC(=O)C1=C(c2ccc3c(c2)OCO3)OC(c2ccc3c(c2)OCO3)C1 (configuration not stated),> 100 µM (inactive),> 100 µM (inactive),> 100 µM (inactive),38.2 µM (inactive),> 100 µM (inactive),> 100 µM (inactive),> 100 µM (inactive),> 100,> 100 µM (inactive),> 100 µM (inactive),> 100 µM (inactive),–,> 100 µM (inactive),> 100 µM (inactive),–,> 100 µM (inactive),80.9 µM (inactive),> 100 µM (inactive),–,–
Cc1ccc(S(=O)(=O)NC(=O)NC(CC(N)=O)C(=O)O)cc1 (configuration not stated),> 100 µM (inactive),–,–,> 100 µM (inactive),> 100 µM (inactive),> 100 µM (inactive),> 100 µM (inactive),> 100,> 100 µM (inactive),> 100 µM (inactive),–,> 100 µM (inactive),> 100 µM (inactive),> 100 µM (inactive),> 100 µM (inactive),> 100 µM (inactive),> 100 µM (inactive),> 100 µM (inactive),> 100 µM (inactive),–
CC(=O)O[C@H]1CC[C@@]2(C)C(=CC[C@@H]3[C@@H]2CC[C@]2(C)c4nc(Cl)ccc4C[C@@H]32)C1,37.2 µM (inactive),87.3 µM (inactive),27.9 µM (inactive),64.6 µM (inactive),–,45.4 µM (inactive),38.1 µM (inactive),40,38.8 µM (inactive),32.6 µM (inactive),45 µM (inactive),93.8 µM (inactive),61.1 µM (inactive),54.7 µM (inactive),50 µM (inactive),–,33.7 µM (inactive),33.9 µM (inactive),–,41.4 µM (inactive)
CC(C)OC(=O)NCCn1cc(-c2ccccc2)nn1,> 100 µM (inactive),–,–,–,> 100 µM (inactive),> 100 µM (inactive),> 100 µM (inactive),> 100,> 100 µM (inactive),> 100 µM (inactive),> 100 µM (inactive),> 100 µM (inactive),> 100 µM (inactive),> 100 µM (inactive),> 100 µM (inactive),> 100 µM (inactive),> 100 µM (inactive),> 100 µM (inactive),–,> 100 µM (inactive)
NNC1=N/C(=C\c2ccco2)C(=O)N1,> 100 µM (inactive),> 100 µM (inactive),> 100 µM (inactive),59.4 µM (inactive),57.3 µM (inactive),> 100 µM (inactive),> 100 µM (inactive),58.3,> 100 µM (inactive),> 100 µM (inactive),44.3 µM (inactive),> 100 µM (inactive),> 100 µM (inactive),–,28.8 µM (inactive),> 100 µM (inactive),47.5 µM (inactive),> 100 µM (inactive),–,> 100 µM (inactive)
COc1ccc(/C=c2\sc3n(c2=O)C(N)=C(C#N)C(c2ccc(OC)cc2)C=3c2nc3ccccc3[nH]2)cc1 (configuration not stated),> 10 µM (inactive),29.6 µM (inactive),19.6 µM (inactive),> 100 µM (inactive),55.6 µM (inactive),38.7 µM (inactive),27.4 µM (inactive),27.1,> 100 µM (inactive),27.2 µM (inactive),16.4 µM (inactive),> 100 µM (inactive),22.6 µM (inactive),12.2 µM (inactive),–,> 10 µM (inactive),34.4 µM (inactive),29.6 µM (inactive),–,–
